The term EC50 denotes the concentration giving half of the maximal effect.

The target in one assay is CDK4/CyclinD1 (Homo sapiens, UniProt P11802). Nature of the assay: CDK4/cyclinD1 kinase assay (Nanosyn, Caliper microfluidic kinase detection). The format is biochemical. The note with it: Table 2; 12-point dose-response, ATP at Km (200 μM), 10 hr; read-out: CDK4/CycD1 IC50. As to the method:
The assays were performed using microfluidic kinase detection technology (Caliper Assay Platform). The compounds were tested in 12-point dose-response format in singlicate at Km for ATP. Phosphoacceptor substrate peptide concentration used was 1 μM for all assays and Staurosporine was used as the reference compound for all assays. Specifics of each assay are as described below:
CDK4/CyclinD1: Enzyme concentration: 1 nM; ATP concentration: 200 μM; Incubation time: 10 hr.

A further assay concerns HS68 cells. Put plainly: G1 arrest (cellular G1 and S-phase) assay, propidium iodide flow cytometry. The note with it: Homo sapiens, Hs68, HS68 cells. The format is cell-based, human. The method, then: HS68 cells (human skin fibroblast cell line (Rb-positive)) were stained with propidium iodide staining solution and run on Dako Cyan Flow Cytometer. The fraction of cells in G0-G1 DNA cell cycle versus the fraction in S-phase DNA cell cycle was determined using FlowJo 7.2.2 analysis.
The compounds listed in Table 1 were tested for their ability to arrest HS68 cells at the G1 phase of the cell cycle.

Assay [1] deals with MCF7 (breast adenocarcinoma, Rb-positive). Nature of the assay: Cellular proliferation assay (CellTiter-Glo), MCF7. The format is cell-based. The note with it: Homo sapiens, MCF7, 144 h, cell viability after six days. As to the method:
(§1) Further cellular proliferation assays were conducted using the following cancer cell lines: MCF7 (breast adenocarcinoma—Rb-positive), ZR-75-1 (breast ductal carcinoma—Rb-positive), H69 (human small cell lung cancer—Rb-negative) cells, or A2058 (human metastatic melanoma cells—Rb-negative). These cells were seeded in Costar (Tewksbury, Massachusetts) 3093 96 well tissue culture treated white walled/clear bottom plates. Cells were treated with the compounds of Table 1 as nine point dose response dilution series from 10 uM to 1 nM. Cells were exposed to compounds and then cell viability was determined after either four (H69) or six (MCF7, ZR75-1, A2058) days as indicated using the CellTiter-Glo® luminescent cell viability assay (CTG; Promega, Madison, Wisconsin, United States of America) following the manufacturer's recommendations. Plates were read on BioTek (Winooski, Vermont) Syngergy2 multi-mode plate reader. The Relative Light Units (RLU) were plotted as a result of variable molar concentration and data was analyzed using Graphpad (LaJolla, California) Prism 5 statistical software to determine the EC50 for each compound.
(In ATP-based viability assays light output follows the ATP content of the culture.)

The subject of assay [2] is H69 (human small cell lung cancer, Rb-negative) cells. Put plainly: Cellular proliferation assay (CellTiter-Glo), H69. The format is cell-based. The note with it: NCI-H69, 96 h, cell viability after four days. As to the method: as §1
Assay [3] has as its system A2058 (human metastatic melanoma cells, Rb-negative). Nature of the assay: Cellular proliferation assay (CellTiter-Glo), A2058. The format is cell-based. The note with it: A2058, 144 h, cell viability after six days. As to the method:
as §1

The test system of assay [4] is ZR-75-1 (breast ductal carcinoma, Rb-positive). Put plainly: Cellular proliferation assay (CellTiter-Glo), ZR-75-1. The format is cell-based. The note with it: Homo sapiens, ZR-75-1, 144 h, cell viability after six days, read-out: ZR75-1 Cellular EC50. As to the method: as §1

CDK4/CyclinD1, sequence (P11802 whole entry, species assumed): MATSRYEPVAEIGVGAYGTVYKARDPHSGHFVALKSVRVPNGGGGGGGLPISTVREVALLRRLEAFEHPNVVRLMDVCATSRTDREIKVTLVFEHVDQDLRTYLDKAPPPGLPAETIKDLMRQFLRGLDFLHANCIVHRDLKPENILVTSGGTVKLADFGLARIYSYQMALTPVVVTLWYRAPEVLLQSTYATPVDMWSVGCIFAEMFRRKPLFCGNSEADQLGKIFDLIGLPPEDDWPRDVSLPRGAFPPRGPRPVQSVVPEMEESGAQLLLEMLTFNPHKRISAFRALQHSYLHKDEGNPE
CDK4/CyclinD1, sequence (P24385 whole entry partner, species assumed): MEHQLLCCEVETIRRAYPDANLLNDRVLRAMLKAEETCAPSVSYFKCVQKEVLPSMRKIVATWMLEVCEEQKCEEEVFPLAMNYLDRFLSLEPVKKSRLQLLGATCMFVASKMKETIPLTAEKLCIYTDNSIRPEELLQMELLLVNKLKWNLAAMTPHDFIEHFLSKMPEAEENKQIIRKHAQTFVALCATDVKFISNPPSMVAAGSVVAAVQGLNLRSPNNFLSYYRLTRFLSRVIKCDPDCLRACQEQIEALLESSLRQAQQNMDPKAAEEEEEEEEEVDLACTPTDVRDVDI

As for `CCN(CC)C1CCN(C(=O)c2ccc(Nc3ncc4cc5n(c4n3)C3(CCCCC3)CNC5=O)nc2)C1` (stereo not shown) [JJ], the IC50 at CDK4/CyclinD1 is 1.4 nM. Besides, the EC50 in the assay with HS68 cells was 90 nM; in assay [1] it was 122 nM; in assay [2], more than 3000 nM; in assay [3] it was more than 3000 nM.
For the compound `CN(C)C1CCN(c2ccc(Nc3ncc4cc5n(c4n3)C3(CCCCC3)CNC5=O)nc2)CC1` [O], the EC50 with HS68 cells was 40 nM; in assay [1] it was 56 nM; in assay [4] it was 29 nM; in assay [2], more than 3000 nM; in assay [3], 2670 nM.
For the compound `CCN(CC)C1CCN(c2ccc(Nc3ncc4cc5n(c4n3)C3(CCCCC3)CNC5=O)nc2)C1` (stereo not shown) [QQ], the IC50 at CDK4/CyclinD1 came out at 4.1 nM. The EC50 in assay [2] and in assay [3] was more than 3000 nM in each case.
As to `CC1CCN(C2CCN(c3ccc(Nc4ncc5cc6n(c5n4)C4(CCCCC4)CNC6=O)nc3)CC2)C1` (stereo not shown) [K], the IC50 on CDK4/CyclinD1 was determined as 1 nM. The EC50 was 28 nM with HS68 cells, 43 nM in assay [1], more than 3000 nM in assay [2] and 1790 nM in assay [3].
Take `C[C@H](O)CN1[C@H](C)CN(c2ccc(Nc3ncc4cc5n(c4n3)C3(CCCCC3)CNC5=O)nc2)C[C@@H]1C` [Z]: at CDK4/CyclinD1, the IC50 amounted to 3.2 nM. Further, the values for the EC50 (in the assay with HS68 cells; in assay [1]; in assay [4]) were 110 nM, 141 nM and 54 nM, respectively.
Take `O=C1NCC2(CCCCC2)n2c1cc1cnc(Nc3ccc(C(=O)N4CCN(C5CCC5)CC4)cn3)nc12` [LL]: the IC50 at CDK4/CyclinD1 was 2 nM. In addition, the EC50 in the assay with HS68 cells was 125 nM; in assay [1] it was 96 nM; in assay [2], more than 3000 nM; in assay [3], more than 3000 nM.
On to `C[C@H]1CN(c2ccc(Nc3ncc4cc5n(c4n3)C3(CCCCC3)CNC5=O)nc2)CCN1` [KK], for which the IC50 at CDK4/CyclinD1 turned out to be 2.3 nM. The EC50 in the assay on HS68 cells stood at 22 nM; in assay [1], 333 nM; in assay [2] it was 2420 nM; in assay [3], 1380 nM.
For the compound `O=C1NCC2(CCCC2)n2c1cc1cnc(Nc3ccc(C(=O)N4CCN(CC5CC5)CC4)cn3)nc12` [OOO], the IC50 on CDK4/CyclinD1 amounted to 2.4 nM. The EC50 in the assay on HS68 cells is 200 nM; in assay [1], 138 nM; in assay [2], more than 3000 nM; in assay [3], more than 3000 nM.
For the compound `CCN(CC)C1CCN(C2CCN(c3ccc(Nc4ncc5cc6n(c5n4)C4(CCCCC4)CNC6=O)nc3)CC2)C1` (stereo not shown) [RR], the IC50 at CDK4/CyclinD1 amounted to 1.2 nM. For the same compound, the EC50 in the assay on HS68 cells stood at 90 nM; in assay [1], 72 nM; in assay [2], 2890 nM; in assay [3] it was 1620 nM.
Consider `CC(C)N1CCN(c2ccc(Nc3ncc4cc5n(c4n3)C3(CCCCC3)CNC5=O)nc2)C[C@@H]1C` [AA], for which the IC50 at CDK4/CyclinD1 is 0.5 nM. Moreover, the EC50 is 70 nM in the assay with HS68 cells, 47 nM in assay [1], 47 nM in assay [4] and more than 3000 nM in assay [2].
In the case of `CC1CN(c2ccc(Nc3ncc4cc5n(c4n3)C3(CCCCC3)CNC5=O)nc2)CCN1CC(C)(C)O` (stereo not shown) [W], the IC50 on CDK4/CyclinD1 came to 2.7 nM. The half-maximal effective concentration (EC50) was 160 nM with HS68 cells, 294 nM in assay [1], more than 3000 nM in assay [2] and more than 3000 nM in assay [3].
Take `CC(C)N1CCN(Cc2ccc(Nc3ncc4cc5n(c4n3)C3(CCCCC3)CNC5=O)nc2)CC1` [EE]: on CDK4/CyclinD1, the IC50 is 3.8 nM. Moreover, the results for the EC50 (in the assay with HS68 cells; in assay [1]; in assay [4]) were 125 nM, 216 nM and 203 nM, respectively.
In the case of `C[C@H]1CN(c2ccc(Nc3ncc4cc5n(c4n3)C3(CCCCC3)CNC5=O)nc2)CCN1CC1CC1` [B], the IC50 on CDK4/CyclinD1 was found to be 0.4 nM. The EC50 in the assay on HS68 cells came out at 90 nM; in assay [1], 201 nM; in assay [4], 245 nM.
For the compound `CC(C)N1CCN(c2ccc(Nc3ncc4cc5n(c4n3)C3(CCCCC3)CNC5=O)nc2)CC1C` (stereo not shown) [PP], the IC50 on CDK4/CyclinD1 was 3.1 nM. Also, the EC50 worked out at 100 nM in the assay on HS68 cells, 164 nM in assay [1] and 66 nM in assay [4].
`C[C@@H](O)CN1CCN(c2ccc(Nc3ncc4cc5n(c4n3)C3(CCCCC3)CNC5=O)nc2)CC1` [S]: the EC50 in the assay on HS68 cells was 150 nM; in assay [1] it was 76 nM; in assay [2], more than 3000 nM; in assay [3], more than 3000 nM.
As for `CC(C)C[C@@H]1CNC(=O)c2cc3cnc(Nc4ccc(N5CCN(C)CC5)cn4)nc3n21` [XXX], the IC50 at CDK4/CyclinD1 stood at 11.4 nM. In addition, in the assay with HS68 cells, a half-maximal effect (EC50) was put at 300 nM.
For `CC(C)(C)CCN1CCN(c2ccc(Nc3ncc4cc5n(c4n3)C3(CCCC3)CNC5=O)nc2)CC1(C)C` [CCC], the IC50 at CDK4/CyclinD1 is 2 nM. Besides, in the assay on HS68 cells, a half-maximal effect (EC50) was put at 250 nM.
Taken in the same sequence, the figures for `O=C1NCC2(CCCCC2)n2c1cc1cnc(Nc3ccc(N4CCN(C5CCC5)CC4)cn3)nc12` [F] were 1.5 nM and 175 nM.
Turning to `CC1(C)CN(c2ccc(Nc3ncc4cc5n(c4n3)C3(CCCCC3)CNC5=O)nc2)CCN1C1CC1` [BB], the IC50 on CDK4/CyclinD1 was 0.8 nM. Further, the EC50 with HS68 cells came out at 75 nM; in assay [2], 2940 nM; in assay [3], 1640 nM.
For the compound `CC(C)(O)CN1CCN(c2ccc(Nc3ncc4cc5n(c4n3)C3(CCCC3)CNC5=O)nc2)CC1` [EEE], the EC50 in the assay with HS68 cells is 250 nM; in assay [1], 453 nM; in assay [2], more than 3000 nM; in assay [3], more than 3000 nM.
As to `C[C@H](O)CN1CCN(c2ccc(Nc3ncc4cc5n(c4n3)C3(CCCCC3)CNC5=O)nc2)C[C@@H]1C` [C], the IC50 on CDK4/CyclinD1 was 1.4 nM. Further, the EC50 with HS68 cells stood at 95 nM; in assay [1] it was 88 nM; in assay [4] it was 73 nM.
With `CCC(C)CN1CCN(c2ccc(Nc3ncc4cc5n(c4n3)C3(CCCC3)CNC5=O)nc2)CC1` (stereo not shown) [AAA], the IC50 on CDK4/CyclinD1 was 2.3 nM. For the same compound, the EC50 was 320 nM in assay [1], more than 3000 nM in assay [2] and more than 3000 nM in assay [3].
With `CN(C)C1CCN(c2ccc(Nc3ncc4cc5n(c4n3)C3(CCCC3)CNC5=O)nn2)CC1` [TTT], at CDK4/CyclinD1, the IC50 was determined as 3.4 nM. Also, in the assay with HS68 cells, the half-maximal effective concentration (EC50) turned out to be 350 nM.
For the compound `O=C1NCC2(CCCCC2)n2c1cc1cnc(Nc3ccc(N4CCC(N5CCC(C(F)(F)F)CC5)CC4)cn3)nc12` [X], at CDK4/CyclinD1, the IC50 amounted to 0.9 nM. In addition, the values for the EC50 (in the assay with HS68 cells; in assay [2]; in assay [3]) were 65 nM, more than 3000 nM and more than 3000 nM, respectively.
As for `O=C1NCC2(CCCC2)n2c1cc1cnc(Nc3ccc(N4CCC(N5CCCCC5)CC4)cn3)nc12` [HHH], the IC50 at CDK4/CyclinD1 was 6.8 nM. This compound also showed an EC50 in the assay on HS68 cells of 250 nM.
Take `C[C@H](O)CN1CCN(c2ccc(Nc3ncc4cc5n(c4n3)C3(CCCCC3)CNC5=O)nc2)CC1` [A]: on CDK4/CyclinD1, the IC50 came out at 4.2 nM. Besides, the EC50 in the assay with HS68 cells was 110 nM; in assay [1], 75 nM; in assay [4] it was 44 nM; in assay [2] it was more than 3000 nM.
Take `CC(C)N1CCN(c2ccc(Nc3ncc4cc5n(c4n3)C3(CCCCC3)CNC5=O)nc2)C[C@H]1C` [L]: the EC50 was 65 nM in the assay on HS68 cells, 506 nM in assay [1], 2160 nM in assay [2] and more than 3000 nM in assay [3].
Regarding `CN1CCN(c2ccc(Nc3ncc4cc5n(c4n3)C3(CCCC3)CNC5=O)nc2)CC1` [ZZ], the IC50 on CDK4/CyclinD1 amounted to 10.5 nM. The compound also had an EC50 in the assay on HS68 cells of 500 nM.
`CCN1[C@H](C)CN(c2ccc(Nc3ncc4cc5n(c4n3)C3(CCCCC3)CNC5=O)nc2)C[C@@H]1C` [FF]: the EC50 turned out to be 80 nM in the assay with HS68 cells and 140 nM in assay [1].
For `CN(C)C1CCN(c2ccc(Nc3ncc4cc5n(c4n3)C3(CCCC3)CNC5=O)nc2)CC1` [YY], the IC50 at CDK4/CyclinD1 came out at 4.6 nM. In addition, the values for the 50% effective concentration (EC50) (in the assay on HS68 cells; in assay [1]; in assay [4]) were 175 nM, 257 nM and 581 nM, respectively.

Source of the values: patent US12285431B2, “Treatment of Rb-negative tumors using topoisomerase inhibitors in combination with cyclin dependent kinase 4/6 inhibitors” (G1 Therapeutics, Inc., priority 2014, dated 2025).
